The values below come from patent US20200368288A1, “Hierarchic Neural Microphysiological System for Brain Function and Disorders” (The Trustees of Columbia University in the City of New York, priority 2018, published 2020).

Where two headings read alike, the source gives them in different places.

For one assay, the system named is Setd1a+/− MoNNets. Nature of the assay: Rescue of Setd1a+/- MoNNet network pathophysiology by LSD1 inhibition, Ca2+ imaging before and after treatment. The format is cell-based, mice. The text has this: Taking advantage of MoNNet properties, effective in vitro models of SCZ-associated network pathophysiology (SCZ-MoNNets) were developed. SCZ is characterized by psychosis, cognitive dysfunction and a broad spectrum of complex behavioral abnormalities (Clementz et al., 2016). Several recent studies in animal models have investigated the underlying circuit pathophysiology, identifying deficits in activity synchrony and degraded ensembles (Fenelon et al., 2013; Hamm et al., 2017; Hamm et al., 2020; Marissal et al., 2018; Sigurdsson et al., 2010; Zaremba et al., 2017). Therefore, the MoNNet approach provides a well suited system to develop quantitative in vitro models of SCZ-like network function pathophysiology. We developed and characterized MoNNet preparations (SCZ-MoNNets) from two well-studied genetic models—Setd1a+/− and Df(16)A+/−, which recapitulate SCZ-related cognitive and circuitry pathophysiology (Fenelon et al., 2013; Mukai et al., 2019). […] The lower-level deviations in molecular, cellular and synaptic pathways underlying the observed alterations in network states remain to be determined and may be different for each mutation.
Hippocampal neuronal cultures were generated from E17 to E18 embryos by building upon standard cell culture techniques, as follows. Pregnant mice were anesthetized under isoflurane, and euthanized by cervical dislocation. Hippocampus were dissected in Hibernate E (Gibco) iced cold media, and incubated in 0.25% Trypsin-EDTA (Gibco) at 37° C. for […]., followed by […] DNAse I (1 μg/ml; Sigma) incubation at room temperature. Mechanical dissociation of dissected hippocampus was performed by repeated pipetting with a fire-polished glass Pasteur pipet until a homogenous cell suspension was obtained. Cell viability was determined by Trypan Blue exclusion assay. Cell solution was then centrifuged at 150 g for […], and the supernatant was removed. Resulting cell pellet was resuspended in the culture media containing Neurobasal media, 2% B27, 0.5 mM Glutamate and 1% Penicillin/Streptomycin (Gibco). Cells were infected with AAV1.Syn.GCaMP6f.WPRE.SV40 virus ((Chen et al., 2013); Pennsylvania Vector Core, Cat #:AV-1-PV2822). For single spheroid cultures, 2% agarose 96 wells (400 μm diameter) micro-molds were created by using custom casts fabricated by 3D printing (UV-resin; Formlabs 3D printer). The agarose micro molds were equilibrated in the culture medium over a 24 h period prior to plating. […]
Imaging was performed using a wide-field fluorescence microscope (Leica M165FC) equipped with a long-pass GFP filter set (Leica filter set ET GFP M205FA/M165FC), 1.6× Plan Apo objective, 3.2× zoom and sCMOS camera (Hamamatsu ORCA-Flash 4.0). Time-lapse videos were recorded at 30 Hz for ˜4.5 min at 37° C. […]

The next assay has as its target LSD1 (Mus musculus, UniProt Q6ZQ88). As to conditions: Mukai et al., 2019; cited from earlier work.
A further assay concerns NNet preparations. Briefly: Chronic ketamine treatment NNet model of schizophrenia pathophysiology, calcium imaging. As to conditions: ketamine 10 μM every 24 hours vs saline control; imaging before and 2 days after.
For another assay, the system named is MoNNet neurons. Briefly: Whole cell electrophysiology recordings in MoNNet, synaptic transmission across spheroids. The format is cell-based, mice. As for the experimental part:
Whole cell recordings were performed as described previously (Crabtree et al., 2016; Crabtree et al., 2017), using borosilicate glass pipettes (initial resistance 3-5.5 MS2) which were filled with an intracellular solution containing: K methanesulfonate 125 mM, NaCl 10 mM, CaCl2) 1 mM, MgCl2 1 mM, HEPES 10 mM, EGTA 0.1 mM, MgATP 5 mM, NaGTP 0.5 mM. The pH was adjusted to 7.2 with KOH. Spontaneous synaptic events were assessed at −70 mV (presumptive glutamatergic) and at 0 mV (presumptive GABAergic). Excitatory and inhibitory evoked synaptic responses were assessed as follows. Evoked synaptic responses across spheroid units were elicited with electric stimulation applied with a concentric bipolar stimulating electrode (tip diameter 0.125 mm, FHC, Bowdinham, Me.) positioned on a spheroid >250 μm away from the spheroid containing the recorded neuron. The stimulus was set to 10V, a duration of 100 μs and applied at 10 Hz. […] Neurons were then held in voltage-clamp at 0 mV to assess evoked inhibitory synaptic responses. For assessing neuronal excitability in current-step, action potential firing was recorded in response to incremental (20 pA steps) depolarizing current injections (500 ms duration). Bridge balance of series resistance was employed and recordings with series resistance >20 MΩ were rejected. For current-step assays, resting membrane potential was adjusted to ˜−70 mV by injection of a small standing current. For voltage steps, cells were held at −70 mV, and 10 mV steps were applied ranging from −100 mV to 50 mV. Series resistance-related errors were partially corrected by using 70% prediction and 70% series resistance compensation.

In a further assay the test system is NNet preparation. Briefly: Modeling epileptic seizures with NNet (4-AP local injection, picrotoxin addition). In kind it is cell-based. As for the experimental part: 4-AP, a commonly used seizure inducing compound, was injected in a specific neurosphere of an NNet preparation. […] As shown in the magnified view (top row, third) these peaks are maintained during the time. […] In FIG. 6 the colored maps (bottom) show the spatial progression of the seizure waves in three different bouts (labeled as Epi. Events #1, #2, and #3). The directionality of seizure spread is maintained constant from bottom-left to top-right.

The mark [1] stands for this setting: 2-day treatment, TCP 600 nM, ORY-1001 0.6-0.9 nM.
Where [2] appears, read: picrotoxin added after 4-AP local injection.

Regarding `N[C@@H]1C[C@H]1c1ccccc1` (racemic) [TCP, Tranylcypromine], in the assay with Setd1a+/− MoNNets, the ensembles stability entry was “partial rescue” and the network synchrony result is reported as “partial rescue”.
Consider `N[C@H]1CC[C@H](N[C@@H]2C[C@H]2c2ccccc2)CC1` [ORY-1001], for which, in the assay on Setd1a+/− MoNNets (setting [1]), the ensembles stability entry is given as “partial rescue” and the network synchrony entry is reported as “partial rescue”. Moreover, the “cellular and behavioral defects” value on LSD1 was “effective in partial rescue”.
Consider `CNC1(c2ccccc2Cl)CCCCC1=O` (stereo not drawn) [ketamine], for which the “correlation among neurosphere units of NNet” value with NNet preparations is on record as “decreased”.
Turning to `N#Cc1cc2[nH]c(=O)c(=O)[nH]c2cc1[N+](=O)[O-]` [CNQX], the “evoked inhibitory synaptic transmission across spheroids” value with MoNNet neurons (CNQX 10 μM blockade of glutamatergic transmission, cell held at 0 mV) was “robust evoked inhibitory synaptic transmission”. The “evoked excitatory synaptic responses” value in the assay on MoNNet neurons (CNQX 10 μM washed in with ACSF, voltage-clamp at −70 mV, 10 Hz stimulation of neighboring spheroid) is recorded as “completely ablated”. The “spontaneous inhibitory synaptic events” value in the assay on MoNNet neurons (CNQX 10 μM, neuron held at 0 mV) is on record as “reduction”.
Consider `Nc1ccncc1` [4-AP], for which the seizure peaks result in the assay on NNet preparation (local injection in a specific neurosphere) is listed as “typical high seizure peaks”.
Take picrotoxin: in the assay with NNet preparation (setting [2]), the “directionality of seizure spread” value was “directionality becomes random” and the “frequency of number of events” value is given as “increased frequency of number of events”.
